# Laboratory results: patent US6262095A, “Use of tricyclic derivatives of 1,4-dihydro-1,4-dioxo-1H-naphthalene, novel compounds obtained and their application in theraphy” (Laboratoire Innothera, priority 1995, dated 2001)
# Key:
# [1] = system: capillary resistance of rats; test: Capillary resistance of rats after oral administration (petechial index); assay type: in vivo, rat (Wistar); details: rat
# Procedure: The increase in the capillary resistance is evaluated by the modification of the petechial index (negative pressure inducing the extravasation of the erythrocytes), measured by a method derived from the angiosterrometer of Parrot.
# The studies are carried out on male Wistar rats with an average weight of 200 g (approximate age six weeks). The bottom area of the back is shorn, then the hair is pulled by means of a paste based on a derivative of thioglycolic acid and calcium hydroxide. After approximately 30 min, the skin is abundantly rinsed and dried.
# On the day of the study, the rats are maintained without constraint. A low pressure of 80 mm of mercury is applied. If the petechiae (extravasation of erythrocytes) have not appeared within 15 sec, the low pressure is increased as a countermeasure, keeping the suction cap at the same place.
# The minimum low pressure where petechias appear, in mm of mercury, expresses the basal capillary resistance (before any treatment). Two measurements are made for each test at different sites on of the back.
# The rats are treated by the oral route. […] All the measurements are done in the blind mode.
# A percentage of variation in the capillary resistances of the animals treated compared to their basal capillary resistance is calculated for each compound studied, at each treatment time and compared with the control group (excipient only) or the reference group.
# [2] = system: hyperpermeability induced by zymosan in rats; test: Inflammatory hyperpermeability induced by zymosan in rats; assay type: in vivo, rat (Wistar); details: rat, oral, 5 mg/kg
# Procedure: The vascular permeability is studied in vivo by measuring the extravasation of albumin, the quantity of which is determined using an albumin-binding dye (Evans blue).
# The hyperpermeability is induced by the intradermal injection of a solution of histamine, bradykinin, or zymosan.
# The abdominal walls of the rats (Wistar, 200-230 g) are shorn 1 h before the start of the experiment. The product to be tested is injected by the intraperitoneal route or orally 1-4 h before the sacrifice. The rats are anesthetized with a halothane mixture. They then receive an intradermal injection in their abdomen of 0.10 or 0.15 mL (or for histamine 6.7 or […]) of inflammatory agent and an intravenous injection of 1 mL of 0.5% Evans blue solution in the vein of the penis. These injections are carried out 30 min before the sacrificing.
# 30 min after these two injections, the rats are sacrificed by cervical dislocation.
# At the site of the injection of the inflammatory agent, the skin is cut and placed into glass tubes with a ground[-glass] neck containing 3 mL of fuming hydrochloric acid. […] After allowing the preparation to stand for 30 min, 7 mL of dichloromethane are added. The tubes are periodically agitated for 1 h. The aqueous phase is eliminated by aspiration, and the organic "dichloromethane" phase is filtered. The optical densities are quantified by absorption spectrophotometry at a wavelength of 620 nm, against a blank [control] containing only dichloromethane. The averages of the optical densities of the different lots of treated or control animals are calculated, then a percentage of variation of the values corresponding to the treated [experimental] animals compared to those of the control animals is calculated.
# [3] = system: saphenous vein in rabbits; test: Potentiation of the contractile response of the rabbit saphenous vein to electrical stimulation; assay type: cell-based; details: Oryctolagus cuniculus, read-out: increase of contractile response due to electrical stimulation
# Procedure: The contractile effects are measured in vitro under static conditions on vascular capacitance or resistance rings of saphenous, femoral, jugular, mesenteric, and caval veins . . . and on femoral, carotid, basilar, or mesenteric arteries, as well as the thoracic or abdominal aorta . . . in rats (Wistar, 200-250 g), rabbits (New Zealand, 2-2.5 kg), guinea pigs (Dunkin Hartley 250-300 g).
# The rings are placed in a chamber for isolated organs (25 mL for capacitance vessels and 2.5 mL for resistance vessels according to Mulvany), and maintained under isometric conditions using two rigid threads inserted inside the vessel, avoiding causing damage to the endothelium. The vessels are bathed in a modified Krebs solution (in mM: NaCl=118; KCl=4.6; CaCl2 =2.5; MgSO4 =1.2; KH2 PO4 =1.17; NaHCO3 =25; glucose=11), continuously aerated using a gaseous mixture of 95% O2 and 5% Co2, at a pH=7.4, and regulated by thermostat at 37° C. The rings are adjusted to their optimal point as far as the tension-length relationship is concerned. […] The pharmacological studies are carried out after a few standardized preliminary contractile stimulations using a depolarizing solution (hyperpotassic type obtained by replacing NaCl with KCl in equimolar quantities), along with rinsings and periods of equilibration in a pure physiological solution. […]
# septic shock in rats = test: Septic shock induced by LPS in rats; assay type: in vivo; details: rat, 28 mg/kg i.v. bolus 5 min before induction of septic shock, compared to control group
# Procedure: The activity in septic shock is studied in rats after the induction of the shock by an intravenous injection in the bolus of a lipopolysaccharide endotoxin (LPS: 15 mg/kg) of E. col, in a method similar to that described by Terashita et al., Eur. J. Pharmacol., 1985, Vol. 109: pp. 257-261. The arterial pressures are measured as a function of time and comparatively between treated groups and control groups (excipient alone). The compounds are administered intravenously or orally, 5 min or 2 h, respectively, before the injection of LPS.
smiles,measurement,setting,value
"O=C1c2ccccc2C(=O)c2sc(-c3ccco3)nc21 [Example n, 4,9-Dihydro-4,9-dioxo-2-(2-furyl)-naphtho[2,3-d]thiazole]",correlation of duration of action with plasma concentrations,[1],correlates with its measured plasma concentrations
same,dose dependence of oral effect on capillary resistance,[1],dose dependent over a broad range of doses
same,duration of action on capillary resistance,[1],at least 6 h
same,"Increase of capillary resistance, effects after 4 h","[1]; 0.1 mg/kg, 4 h, * granulometry: 0.5-0.6 mm",45 % of the control
same,"Increase of capillary resistance, effect after 6 h","[1]; 0.1 mg/kg, 6 h, * granulometry: 0.5-0.6 mm",45 % of the control
same,"Zymosan-induced hyperpermeability, effect after 2 h",[2]; 2 h,0 % of the control
same,"Zymosan-induced hyperpermeability, effect after 4 h",[2]; 4 h,-21 % of the control
same,activation at 0.3 µM,[3],200%
same,increase of average arterial pressure,septic shock in rats,20 mm of mercury
